Experimental data from article PMC6600671, “Design and Synthesis of Indoleamine 2,3-Dioxygenase 1 Inhibitors and Evaluation of Their Use as Anti-Tumor Agents” (Molecules, 2019).
Several values for one entry are separate records, joined by “and”; a condition that tells them apart may be missing. Identical values can stand only once. Entries after “also recorded” stand apart in the source; their conditions may differ. Like-named read-outs stand apart in the source and are kept apart here. Each block holds one molecule with its values, some of them ahead of it.

Legend:
pathway = conditions: reported value; cited from earlier work
rhIDO1 = rhIDO1 (Homo sapiens, UniProt P14902); assay: Enzyme-based IDO1 activity assay (kynurenine absorbance at 492 nm); assay type: biochemical; conditions: rhIDO1 0.05 μM, 37 °C, 45 min; read-out: IDO IC50
rhIDO1, sequence (P14902 whole entry): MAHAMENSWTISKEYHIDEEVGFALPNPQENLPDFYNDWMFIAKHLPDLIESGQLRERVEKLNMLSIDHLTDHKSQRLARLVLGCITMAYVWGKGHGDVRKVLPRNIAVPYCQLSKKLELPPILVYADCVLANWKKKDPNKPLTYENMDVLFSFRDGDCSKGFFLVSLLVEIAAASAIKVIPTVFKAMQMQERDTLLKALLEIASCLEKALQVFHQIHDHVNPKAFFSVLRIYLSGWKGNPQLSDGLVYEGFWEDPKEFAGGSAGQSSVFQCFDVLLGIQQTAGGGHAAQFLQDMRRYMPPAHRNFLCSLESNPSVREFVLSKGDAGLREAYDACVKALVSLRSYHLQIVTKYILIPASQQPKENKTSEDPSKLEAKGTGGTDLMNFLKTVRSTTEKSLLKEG
Method: (§1) The compounds on IDO1 or TDO activity were determined as follows: A standard reaction mixture (100 μL) containing 100 mM potassium phosphate buffer (pH 6.5), 40 mM ascorbic acid (neutralized with NaOH), 200 μg/mL catalase, 20 μM methylene blue and 0.05 μM rhIDO1 or rhTDO was added to the solution containing the substrate L-tryptophan and the test sample at a determined concentration. […] The yellow pigment derived from kynurenine was measured at 492 nm using a SYNERGY-H1 microplate reader (Biotek Instruments, Inc., Winooski, VT, USA). IC50 was analyzed using the GraphPad Prism 8.0 software (GraphPad Software, San Diego, CA, USA).

rhTDO = rhTDO (Homo sapiens, UniProt P48775); assay: Enzyme-based TDO activity assay (kynurenine absorbance at 492 nm); assay type: biochemical
rhTDO, sequence (P48775 whole entry): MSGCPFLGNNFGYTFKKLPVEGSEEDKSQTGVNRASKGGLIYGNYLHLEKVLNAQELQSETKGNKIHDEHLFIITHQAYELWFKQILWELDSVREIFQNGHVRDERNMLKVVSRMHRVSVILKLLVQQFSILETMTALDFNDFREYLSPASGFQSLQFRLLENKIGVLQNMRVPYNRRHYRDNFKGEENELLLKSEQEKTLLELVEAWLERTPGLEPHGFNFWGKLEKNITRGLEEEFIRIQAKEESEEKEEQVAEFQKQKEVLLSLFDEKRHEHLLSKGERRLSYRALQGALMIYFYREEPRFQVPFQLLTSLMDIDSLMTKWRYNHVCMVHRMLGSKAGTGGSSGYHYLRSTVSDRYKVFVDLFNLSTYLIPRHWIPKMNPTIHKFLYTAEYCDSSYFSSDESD
Method: as §1

MCF7 = assay: Cell viability MTT assay, 72 h; assay type: cell-based; conditions: Homo sapiens, at 50 μM, shown when calculated IC50 >50 μM, read-out: MCF7 inhibition rate (%) at 50 μM
Method: (§2) B16-F10 mouse melanoma cells, NCI-H460 human lung cancer cell line and MCF7 were obtained from American Type Culture Collection (ATCC). All the cell lines were cultured with Dulbecco’ modified Eagle’s medium (DMEM) (Invitrogen Corporation, Waltham, MA, USA) supplemented with 10% fetal bovine serum (FBS) (Hyclone, Waltham, MA, USA) and 1% penicillin streptomycin (Invitrogen) at 37 °C in 5% CO2.
(§3) The in vitro inhibitory effects of the compounds were measured by MTT assay. Briefly, different kinds of cells were plated in 96-well plates at a density of 2000/well. After attachment for overnight at 37 °C, the cells were treated with the compounds at various concentrations. After 72 h culture, the MTT reagent was added to each well, and plates were incubated for another 4 h at 37 °C. Then, the blue-purple crystal formamidine was dissolved in DMSO after discarding the supernatant. Samples were measured using microplate reader at a wavelength of 570 nm (Biotek Instruments, Inc., Winooski, VT, USA). IC50 values were calculated with GraphPad Prism 8.0 software.

[1] = tested on: NCI-H460 human lung cancer cell line; assay: Cell viability MTT assay, 72 h; assay type: cell-based; conditions: at 50 μM, shown when calculated IC50 >50 μM, read-out: H460 inhibition rate (%) at 50 μM
Method: as §2, §3

[2] = Single dose pharmacokinetic study in male ICR mice; assay type: in vivo; conditions: for half-life: read-out: t1/2β (converted)
Method: The animal Care and Welfare Committee of Institute of Materia Medica, Chinese Academy of Medical Sciences approved all animal care, housing, and laboratory procedures. Male ICR mice were used in the single dose pharmacokinetic studies. Compound DX-03-12 was prepared as 3 mg/mL suspension with 0.5% CMC (containing 0.3% Tween 80) for oral use and was formulated as 3 mg/mL solution with 5% DMSO in saline for intravenous injection. Twenty mice were divided into two groups, 10 in each group. After fasting 12 h with free access to water, mice were treated with a 3 mg/kg i.v. or 30 mg/kg oral dose of compound DX-03-12. Blood samples (50 µL) were collected at 5, 15, 30 min, 1, 2, 4, 6, 8, 12 and 24 h after oral administration and 2, 5, 15, 30 min, 1, 2, 4, 6, 8, 12 and 24 h after intravenous injection. After centrifugation, the plasma samples (15 µL) were precipitated by five volumes of acetonitrile. The supernatant were analyzed by liquid chromatography/tandem mass spectrometry (Agilent Technologies, Santa Clara, CA, USA) with a Zobax C18 column (50 mm × 2.1 mm, 3.5 µm). Compound detection was performed with the mass spectrometer in MRM (multiple reaction monitoring, Agilent Technologies, Santa Clara, CA, USA) negative ionization mode. The selected reaction monitoring transitions were m/z 348.5→160 for compound DX-03-12. The pharmacokinetic parameters were calculated with WinNonlin software V6.3 using non-compartmental analysis (Pharsight Corporation, Mountain View, CA, USA).

[3] = tested on: mouse melanoma cells B16F10; assay: In vivo anti-tumor efficacy, B16F10 subcutaneous xenograft model; design: species or system mice; conditions: 60 mg/kg/day, 19 days treatment
Method: C57BL/6 mice were obtained from Beijing Vital River Laboratory Animal Technology Co., Ltd. (Beijing Vital River Laboratory Animal Technology Co., Ltd, Beijing, China). Studies involving mice were approved by the Experimental Animal Management and Welfare Committee at the Institute of Materia Medica, Peking Union Medical College.
(§4) The mouse melanoma cells B16F10 were cultured and harvested in saline. At day 0 of the experiment, 1 × 10^6 cells were injected subcutaneously into mice, and treatment was initiated at day 1 following the mice enrolled randomly in control and experimental groups. For control group, 0.5% CMCNa was orally administered every day. Compound DX-03-12 was dissolved in 0.5% CMC for oral treatment or dissolved in saline for intraperitoneal treatment. When the mice were sacrificed, the tumors were stripped and weighted. […] The statistical analysis was performed with GraphPad Prism 8.0 software and the significance level was evaluated with a one-way ANOVA model.

[4] = Body weight and white blood cells in B16F10 xenograft mice; assay type: in vivo; conditions: 30 or 60 mg/kg/day oral or i.p.
Method: as §4

[5] = mouse, plasma, PO 30 mg/kg, male ICR mice
[6] = mouse, plasma, iv 3 mg/kg, male ICR mice

Structure (SMILES): Cn1cc(C[C@@H](N)C(=O)O)c2ccccc21 [indoximod]
IC50 (pathway): 450 nM

IC50 (rhIDO1): 300 nM | TDO inhibition, in words (rhTDO): marginal | inhibition at 50 µM (rhTDO; at 50 μM, shown when calculated IC50 >50 μM, read-out: TDO inhibition rate (%) at 50 μM): 36.4% | t1/2β ([2]; PO 30 mg/kg, male ICR mice, 30 mg/kg): 4.6 h and 4.61 h | Vss ([2]; iv 3 mg/kg, male ICR mice, 3 mg/kg): 10.1 L/kg | plasma clearance as % of mouse hepatic blood flow ([2]; iv 3 mg/kg, hepatic blood flow 90 mL/min/kg): ~36% | Vd ([2]; male, ICR, mouse, plasma, iv, 3 mg/kg, iv 3 mg/kg, male ICR mice, read-out: Vss): 10 L/kg | half-life ([2]; male, ICR, mouse, plasma, iv, 3 mg/kg, iv 3 mg/kg, male ICR mice): 3.49 h | bioavailability ([2]; male, ICR, mouse, plasma, oral, 30 mg/kg, PO 30 mg/kg vs iv 3 mg/kg, male ICR mice, read-out: F% (oral bioavailability)): ~96% | half-life ([2]; male, ICR, mouse, plasma, po, 30 mg/kg, PO 30 mg/kg, male ICR mice): ~4.6 h | AUC(0-inf) [2, 5]: 13100 ng·h/mL | AUC(0-t) [2, 5]: 12900 ng·h/mL | Tmax [2, 5]: 1 h | AUC(0-inf) [2, 6]: 1500 ng·h/mL | AUC(0-t) [2, 6]: 1350 ng·h/mL | Tmax [2, 6]: 0.033 h | clearance [2, 6]: 33.3 mL/min/kg | Cmax ([2]; mouse, PO 30 mg/kg, male ICR mice, plasma): 2960 ng/mL | Cmax ([2]; mouse, iv 3 mg/kg, male ICR mice, plasma): 2140 ng/mL
Structure (SMILES): O=S(=O)(NCCCOc1ccccc1-c1cnc[nH]1)C(F)(F)F [DX-03-12, N-(3-(2-(1H-imidazol-5-yl)phenoxy)propyl)-1,1,1-trifluoromethane sulfonamide]
inhibition at 50 µM (MCF7): 6.6% | inhibition at 50 µM [1]: 19.3% | decrease in tumor weight (tumor growth inhibition) vs control ([3]; i.p.): 72.3% | decrease in tumor weight (tumor growth inhibition) vs control ([3]; oral): 72.2% | effect on body weight of the mice [4]: no obvious weight loss; also recorded: no obvious effect | effect on peripheral white blood cells [4]: no obvious effect
